Test [1] concerns the target T1, p99 AmpC (Enterobacter cloacae, UniProt P05364).
T1 construct: made in house; host or cells: E. coli BL21(DE3)
Kind of test: β-lactamase enzyme inhibition, p99 AmpC. Type of test: biochemical. An outline of the steps: (§1)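 Native untagged β-lactamases expressed in E. coli BL21(DE3) and purified, then pre-incubated with inhibitor 15 min at 37 °C. Hydrolysis was followed by absorbance: 100 μM nitrocefin at 486 nm for p99 AmpC and OXA-1; imipenem at 300 nm for KPC-2; cefotaxime at 260 nm for SHV-5. IC50 from initial-rate inhibition versus uninhibited controls.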

Test [2] deals with T2, KPC-2 (Klebsiella pneumoniae, UniProt Q9F663).
T2 construct: made in house; host or cells: E. coli BL21(DE3)
Briefly: β-lactamase enzyme inhibition, KPC-2. As to conditions: substrate imipenem, 300 nm; read-out: Class A KPC-2 IC50. Type of test: biochemical. An outline of the steps:
as §1

Test [3] addresses T3, SHV-5 (Klebsiella pneumoniae, UniProt P0A3M1).
T3 construct: made in house; host or cells: E. coli BL21(DE3)
Briefly: β-lactamase enzyme inhibition, SHV-5. The format is biochemical. The gist of the method: as §1

The target of test [4] is T4, OXA-1 (Escherichia coli, UniProt P13661).
T4 construct: made in house; host or cells: E. coli BL21(DE3)
Kind of test: β-lactamase enzyme inhibition, OXA-1. As to conditions: substrate Nitrocefin 100 μM, 486 nm; read-out: Class D OXA-1 IC50. Type of test: biochemical. An outline of the steps:
as §1

The target in test [5] is T5, VIM-2 (Escherichia coli, UniProt Q5U7L7).
T5 construct: made in house; host or cells: E. coli BL21(DE3)
Briefly: β-lactamase enzyme inhibition, VIM-2. The format is biochemical. As to conditions: substrate Nitrocefin 100 μM, 486 nm; read-out: Class B VIM-2 IC50. An outline of the steps: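 Purified VIM-2 (Q sepharose, 50 mM Hepes pH 7.5, >90% purity) preincubated with inhibitor 15 min at 37° C, then nitrocefin added at 100 μM final. Hydrolysis followed at 486 nm for 10 min; IC50 from initial rates versus inhibitor-free control wells.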

Test [6] deals with P. aerug. Ps296 VIM-2. Kind of test: broth microdilution MIC, P. aeruginosa VIM-2. Type of test: cell-based. As to conditions: Pseudomonas aeruginosa; partner antibiotic alone, P. aeruginosa expressing VIM-2. The text has this:
To determine the ability of test compounds to potentiate the inhibition of the growth of bacterial strains that produce beta-lactamase enzymes, classic cell based broth microdilution MIC assays were employed. Six bacteria strains producing beta-lactamase enzymes were used: E. coli expressing the Class A Extended Spectrum Beta-Lactamase (ESBL) CTX-M-15, E. cloacae expressing the Class C P99, K. pneumoniae expressing the Class A carbapenemase KPC-3, P. aeruginosa expressing the Class B carbapenemase VIM-2, K. pneumoniae expressing the class A carbapenemase KPC-2 and the class B carbapenemase VIM-4, and S. aureus producing the Class A penicillinase PC-1. The assay was conducted in Cation Adjusted Mueller Hinton Broth (CAMHB, BD #212322, BD Diagnostic Systems, Sparks, Md.). Bacteria strains were grown for 3-5 hours in CAMBH broth. Test compounds were added to a microtiter plate in 2-fold serial dilutions in CAMHB in a final concentration range of 32 μg/mL to 0.25 μg/ml. An overlay of CAMHB containing a Beta-lactam was added to the compounds at a final static concentration of 4 μg/ml. […] In addition to the titration of test compounds the MICs of a panel of control beta-lactams is also tested to ensure the strains are behaving consistently from test to test. Once the test compound and antibiotics are added the plates can be inoculated according to CLSI broth microdilution method. After inoculation the plates are incubated for 16-20 hours at 37° C. then the Minimal Inhibitory Concentration (MIC) of the test compound is determined visually.
Using the methodology described above in EXAMPLE III, exemplary compounds for Formula I or Formula Ia were evaluated for their ability to inhibit the growth of β-lactamase producing bacteria in the presence of a β-lactam antibiotic.
Representative results are shown in Table 4 where A represents an MIC of the fixed β-lactam antibiotic in the presence of >32 μg/mL of a β-lactamase inhibitor of exemplary compounds, B represents the MIC in the presence of between 8 and 32 μg/mL of a β-lactamase inhibitor of exemplary compounds, and C represents the MIC in the presence of ≦4 μg/mL of a β-lactamase inhibitor of exemplary compounds. NT=Not Tested.
For orientation: Broth dilution looks for growth in wells or tubes with falling amounts of substance.

Here are results for 14 molecules from patent US8912169B2, “Beta-lactamase inhibitors” (VenatoRx Pharmaceuticals, Inc., priority 2012, dated 2014).

For orientation: IC50 means the concentration at which inhibition is half-maximal. As for `N[C@H](CO)CN[C@H]1CC[C@H](CC(=O)N[C@H]2Cc3cccc(C(=O)O)c3OB2O)CC1` [Example 67, (R)-3-(2-(trans-4-((S)-2-amino-3-hydroxypropylamino)cyclohexyl)acetamido)-2-hydroxy-3,4-dihydro-2H-benzo[e][1,2]oxaborinine-8-carboxylic acid], the IC50 in test [1] was less than 100 nM; in test [2], less than 100 nM; in test [3], less than 100 nM; in test [4], less than 100 nM; in test [5], 100 to 1000 nM.

In the case of `NCC(=O)N[C@H]1CC[C@H](CC(=O)N[C@H]2Cc3cccc(C(=O)O)c3OB2O)CC1` [Example 68, (R)-3-(2-(trans-4-(2-aminoacetamido)cyclohexyl)acetamido)-2-hydroxy-3,4-dihydro-2H-benzo[e][1,2]oxaborinine-8-carboxylic acid], the IC50 in test [1] was less than 100 nM; in test [2], less than 100 nM; in test [3] it was less than 100 nM; in test [4], less than 100 nM; in test [5], 100 to 1000 nM.

On to `O=C(C[C@H]1CC[C@H](N(Cc2ncc[nH]2)Cc2ncc[nH]2)CC1)N[C@H]1Cc2cccc(C(=O)O)c2OB1O` [Example 69, (R)-3-(2-(trans-4-(bis((1H-imidazol-2-yl)methyl)amino)cyclohexyl)acetamido)-2-hydroxy-3,4-dihydro-2H-benzo[e][1,2]oxaborinine-8-carboxylic acid], for which the IC50 in test [1], in test [2], in test [3], in test [4] and in test [5] was less than 100 nM in each case.

As for `O=C(C[C@H]1CC[C@H](NCc2cnc[nH]2)CC1)N[C@H]1Cc2cccc(C(=O)O)c2OB1O` [Example 70, (R)-3-(2-(trans-4-((1H-imidazol-5-yl)methylamino)cyclohexyl)acetamido)-2-hydroxy-3,4-dihydro-2H-benzo[e][1,2]oxaborinine-8-carboxylic acid], the IC50 was less than 100 nM in test [1]; less than 100 nM in test [2]; less than 100 nM in test [3]; less than 100 nM in test [4]; 100 to 1000 nM in test [5].

`CC(C)NCCN[C@H]1CC[C@H](CC(=O)N[C@H]2Cc3cccc(C(=O)O)c3OB2O)CC1` [Example 71, (R)-2-hydroxy-3-(2-(trans-4-(2-(isopropylamino)ethylamino)cyclohexyl)acetamido)-3,4-dihydro-2H-benzo[e][1,2]oxaborinine-8-carboxylic acid]: the IC50 in test [1], in test [2], in test [3], in test [4] and in test [5] was less than 100 nM each time.

Take `O=C(C[C@H]1CC[C@H](NCCNc2ncccn2)CC1)N[C@H]1Cc2cccc(C(=O)O)c2OB1O` [Example 72]: the IC50 in test [1] is less than 100 nM; in test [2] it was less than 100 nM; in test [3] it was less than 100 nM; in test [4], less than 100 nM; in test [5] it was 100 to 1000 nM.

Take `O=C(C[C@H]1CC[C@H](NCCNC2CCCC2)CC1)N[C@H]1Cc2cccc(C(=O)O)c2OB1O` [Example 73, (R)-3-(2-(trans-4-(2-(cyclopentylamino)ethylamino)cyclohexyl)acetamido)-2-hydroxy-3,4-dihydro-2H-benzo[e][1,2]oxaborinine-8-carboxylic acid]: the IC50 in test [1], in test [2], in test [3], in test [4] and in test [5] was less than 100 nM each time.

As for `O=C(C[C@H]1CC[C@H](NCCNCC2CC2)CC1)N[C@H]1Cc2cccc(C(=O)O)c2OB1O` [Example 74, (R)-3-(2-(trans-4-(2-(cyclopropylmethylamino)ethylamino)cyclohexyl)acetamido)-2-hydroxy-3,4-dihydro-2H-benzo[e][1,2]oxaborinine-8-carboxylic acid], the IC50 in test [1], in test [2], in test [3], in test [4] and in test [5] was less than 100 nM throughout.

With `O=C(C[C@H]1CC[C@H](NCCN(CC2CC2)CC2CC2)CC1)N[C@H]1Cc2cccc(C(=O)O)c2OB1O` [Example 75, (R)-3-(2-(trans-4-(2-(bis(cyclopropylmethyl)amino)ethylamino)cyclohexyl)acetamido)-2-hydroxy-3,4-dihydro-2H-benzo[e][1,2]oxaborinine-8-carboxylic acid], the half-inhibitory concentration (IC50) in test [1], in test [2], in test [3], in test [4] and in test [5] was less than 100 nM each time.

As for `NCCC(N)[C@H]1CC[C@H](CC(=O)N[C@H]2Cc3cccc(C(=O)O)c3OB2O)CC1` (stereo partly drawn) [Example 76, (R)-3-(2-(trans-4-(1,3-diaminopropyl)cyclohexyl)acetamido)-2-hydroxy-3,4-dihydro-2H-benzo[e][1,2]oxaborinine-8-carboxylic acid], the IC50 in test [1], in test [2], in test [3], in test [4] and in test [5] was less than 100 nM throughout.

`NCC(N)[C@H]1CC[C@H](CC(=O)N[C@H]2Cc3cccc(C(=O)O)c3OB2O)CC1` (stereo partly drawn) [Example 77, (R)-3-(2-(trans-4-(1,2-diaminoethyl)cyclohexyl)acetamido)-2-hydroxy-3,4-dihydro-2H-benzo[e][1,2]oxaborinine-8-carboxylic acid]: the IC50 in test [1] is less than 100 nM; in test [2], 100 to 1000 nM; in test [3] it was less than 100 nM; in test [4], less than 100 nM; in test [5], 100 to 1000 nM.

For the molecule `CCNCCN[C@H]1CC[C@H](CC(=O)N[C@H]2Cc3cccc(C(=O)O)c3OB2O)CC1` [Example 78, (R)-3-(2-(trans-4-(2-(ethylamino)ethylamino)cyclohexyl)acetamido)-2-hydroxy-3,4-dihydro-2H-benzo[e][1,2]oxaborinine-8-carboxylic acid], the 50% inhibitory concentration (IC50) in test [1], in test [2], in test [3], in test [4] and in test [5] was less than 100 nM in each case.

As to `CN(C)CCN[C@H]1CC[C@H](CC(=O)N[C@H]2Cc3cccc(C(=O)O)c3OB2O)CC1` [Example 79, (R)-3-(2-(trans-4-(2-(dimethylamino)ethylamino)cyclohexyl)acetamido)-2-hydroxy-3,4-dihydro-2H-benzo[e][1,2]oxaborinine-8-carboxylic acid], the IC50 in test [1], in test [2], in test [3], in test [4] and in test [5] was less than 100 nM each time.

The MIC is the least concentration at which growth counts as inhibited. Take `C[C@@H](O)[C@H]1C(=O)N2C(C(=O)O)=C(S[C@@H]3CN[C@H](C(=O)N(C)C)C3)[C@H](C)[C@H]12` [Meropenem, reference compound]: the MIC in test [6] amounted to 16 µg/mL.
